Values joined by “and” are separate entries in the source; they are usually repeats but may differ in a detail not shown here. Equal entries are not always repeated. Where two headings read alike, the source gives them in different places. One block for each compound: values may come before it. Where a SMILES comes first, the peptide text is derived from it.
What was measured:
[1] = Solution-gel (sol-gel) transition of each peptide; format: physicochemical
Protocol: In compositions, the influence of pH of 3 to 9, ionic strength of about 0 M to about 5 M salt concentration (for example, ZnCl2, NaCl etc.) via addition of any monovalent and/or divalent cation or temperature plays a critical role in preventing the self-assembly in formulation. In compositions, the pH maybe in the range of about 3 to 9. In some compositions, the amount of peptide is in a range of about 0.001% to 30% by weight and the temperature of the composition may be in a range of about 19° C. to 42° C.

existing elastin fibers = assay: Temperature dependent self-assembly of ELPs in decellularized ex vivo dermises (Elastin van Gieson staining, elastin fiber density); settings: for Elastin fiber integrated density (FIG. 1B): 100 μg/mL, compared to PBS of the same temperature; for Elastin van Gieson staining signal (FIG. 1A): decellularized dermises submerged in 100 μg/mL peptide, five days, 4, 37 or 42° C., compared to PBS
Protocol: The generation of elastin fibers involves the self-assembly process of coacervation causing an accumulation of hydrophobic tropoelastin molecules prior to being cross-linked at lysines to generate mature elastin fibers. Elastin-like peptides (ELPs) undergo temperature-driven conformational change upon heat referred to as inverse temperature transition (ITT).
Following decellularization, the skins, here after referred to as dermises, were washed three times in PBS buffer (1X) for 2 hours each. The decellularized dermises were submerged in either PBS, 100 μg/mL Pal-VGVAPG, or Ace-IGVAPG, for five days, with daily solution changes. Three ex vivo dermises for each treatment were incubated at 4° C., 37° C., or 42° C. The decellularized dermises were fixed overnight in 10% formalin, paraffin embedded and sections at 8 μm. H&E and Elastin van Gieson staining were performed to confirm decellularization and to visualize elastin fibers, respectively. Elastin fiber density quantification was performed via thresholding the elastin fibers using NIH ImageJ software and measurements were recorded.
H&E staining confirmed that the tissues were successfully decellularized (data not shown). […] FIG. 1A indicates the representative images of Elastin van Gieson stained decellularized dermises which were incubated with Pal-VGVAPG and Ace-IGVAPG at different temperatures while concentration was kept constant (100 μg/mL). Elastin fibers are stained black at a scale bar of 50 μm.
Statistical significance of differences between means was performed using two-way ANOVA followed by Tukey's multiple comparisons test. Error bars represent standard error of the mean (SEM). All analyses were performed using Prism 8 software (GraphPad, San Diego, CA, U.S.A.).

[2] = test system: pre-existing elastin fibers; assay: Concentration driven self-assembly in ex vivo skin treated topically (Elastin van Gieson stain); settings: topical
Protocol: Self-assembly of biomolecules is dependent on a critical self-assembly concentration, where self-assembly biomolecules remain as monomers below a critical concentration and assemble above a specific concentration threshold.
Biopsies (12-mm) were treated topically with various concentrations of Ace-IGVAPG or Pal-VGVAPG (12.5, 25, 50 μg/mL) while being maintained in DMEM containing 10% FBS and 1% penicillin/streptomycin/amphotericin B. The skins were formalin fixed, paraffin embedded, sectioned at 8 μm and stain for elastin with the Elastin van Gieson stain.

ex vivo skin = assay: pH dependent peptide self-assembly within intact ex vivo skin (click histology); settings: propargylglycine versions of the peptides, 0.6 mg/mL, topical, pH 4 to 9
Protocol: To aid in visualization of the effects of pH and salinity on peptide self-assembly within tissue, peptides were labeled via F-moc chemistry with propargylglycine. Biopsies (12-mm) of abdominal skin explants were isolated, maintained, as stated in example 4, and were treated topically with the propargylglycine labeled peptides ([…]), twice a day for 5 days. The propargylglycine labeled peptides included A6K, IEIK-13, KLD-12, RADA-16, IGVPAG, and VGVPAG.
To determine how pH and salinity influences peptide assembly in the skin, the propargylglycine labeled peptides were prepared at various pH or salinity pH 3 to 9 or containing a salt content of 0.1-3.0%, respectively. The skins were fixed, cryoprotected, cryosectioned (8 μm) and stored at −20° C. until Copper(I)-Catalyzed Alkyne-Azide Cycloaddition (CuAAC), or click chemistry, was performed to detect peptide assembly. Representative results are shown herein.
The sections were washed, mounted with Fluoromount-G plus DAPI, and were imaged using the Zeiss Axio Observer Z1 Fluorescence Motorized Microscope.
Click chemistry is a technique that uses two biologically inert functional groups, an alkyne and an azide, which form a triazole in the presence of Copper(I). The alkyne on the terminus of the peptide negligibly impacts the aspects of molecule that will impact the penetration of the peptide in tissue (i.e. molecular weight, log P, isoelectric point, and self-assembly) allowing for the peptide to penetrate based on its inherent properties. Once the alkyne-peptide is delivered to the tissue, the sample is fixed, and “stained” with an azido-fluorophore. […] This click histology protocol allows for the peptide of interest to be selectively detected via fluorescence microscopy in the presence of endogenous peptides and/or proteins. […]

ex vivo skin biopsies = assay: Skin elasticity (percent recovery) of ex vivo skin biopsies, TA.XT Plus Texture Analyzer; settings: 25 μg/mL, 24 h topical treatment
Protocol: Following 24 hours, the TA.XT Plus Texture Analyzer was used to indent ex vivo skin with a 7-mm cylindrical probe with 40% strain and a withdrawal rate of 0.1 mm/s. The TA.XT Plus software generated a curve representative of the force (g) applied to the probe by the biopsy overtime (sec) and the areas under the curve for the duration of indentation and the withdrawal time of the probe were used to calculate the percent recovery.
A purely elastic material has a percent recovery of 100%. Since skin is viscoelastic, its recovery will never be equal to a pure elastic material, ex vivo skin, for example, has a percent recovery of 25% to 35%.

skin layers = assay: Triggers of self-assembly within the skin layers

SMILES: C[C@H](N)C(=O)N[C@@H](C)C(=O)N[C@@H](C)C(=O)N[C@@H](C)C(=O)N[C@@H](C)C(=O)N[C@@H](C)C(=O)N[C@@H](CCCCN)C(N)=O [AAAAAAK, A6K] (H-AAAAAAK-NH2)
C0 for sol-gel transition by weight of the composition (w/w) [1]: greater than 2%

SMILES: CC[C@H](C)[C@H](NC(C)=O)C(=O)NCC(=O)N[C@H](C(=O)N[C@H](C)C(=O)N1CCC[C@H]1C(=O)NCC(=O)O)C(C)C [ACE-IGVAPG, Elastin hexapeptide] (HELM PEPTIDE1{[ac].I.G.V.[dA].P.G}$$$$V2.0)
Elastin fiber integrated density (FIG. 1B) (existing elastin fibers; 42° C.): significant increase
Elastin van Gieson staining signal (FIG. 1A) (existing elastin fibers): highest increase at 37 °C
Elastin intensity (Elastin van Gieson stain, FIG. 2) ([2]; 25 μg/mL): increase
Elastin intensity (Elastin van Gieson stain, FIG. 2) ([2]; 50 μg/mL): increase
pH level at which peptide self-assembly was observed within the lower layers of the skin (ex vivo skin): 5 and 7
Greater recovery than non-treated samples (ex vivo skin biopsies): about 25%
Percent recovery compared to non-treated controls (FIG. 6B) (ex vivo skin biopsies; p=0.0056): significantly higher

SMILES: CC[C@H](C)[C@H](N)C(=O)N[C@@H](CCC(=O)O)C(=O)N[C@H](C(=O)N[C@@H](CCCCN)C(=O)N[C@H](C(=O)N[C@@H](CCC(=O)O)C(=O)N[C@H](C(=O)N[C@@H](CCCCN)C(=O)N[C@H](C(=O)N[C@@H](CCC(=O)O)C(=O)N[C@H](C(=O)N[C@@H](CCCCN)C(=O)N[C@H](C(N)=O)[C@@H](C)CC)[C@@H](C)CC)[C@@H](C)CC)[C@@H](C)CC)[C@@H](C)CC)[C@@H](C)CC [IEIKIEIKIEIKI, IEK-13]
Sol-gel transition pH [1]: 3
Temperature trigger ([1]; sol-gel transition): YES
C0 for sol-gel transition by weight of the composition (w/w) ([1]; w/w of the composition): 2%

SMILES: CC(C)C[C@H](NC(=O)[C@H](CC(=O)O)NC(=O)[C@H](CC(C)C)NC(=O)[C@H](CCCCN)NC(=O)[C@H](CC(C)C)NC(=O)[C@H](CC(=O)O)NC(=O)[C@H](CC(C)C)NC(=O)[C@H](CCCCN)NC(=O)[C@H](CC(C)C)NC(=O)[C@H](CC(=O)O)NC(=O)[C@H](CC(C)C)NC(=O)[C@@H](N)CCCCN)C(N)=O [KLDLKLDLKLDL, KLD-12] (H-KLDLKLDLKLDL-NH2)
Sol-gel transition pH [1]: 5
C0 for sol-gel transition by weight of the composition (w/w) ([1]; w/w of the composition): 2%
pH level at which peptide self-assembly was observed within the lower layers of the skin (ex vivo skin): 6

Now from value to compound, other results behind:

Sol-gel transition pH [1]: 5
Temperature trigger ([1]; sol-gel transition): YES
C0 for sol-gel transition by weight of the composition (w/w) ([1]; w/w of the composition): 0.5%
Concentration trigger of self-assembly within the skin layers (skin layers): ≥ 0.5 % w/w
Temperature trigger of self-assembly within the skin layers (skin layers): 37 °C
pH trigger of self-assembly within the skin layers (skin layers): 5
SMILES: CCCCCCCCCCCCCCCC(=O)N[C@@H](CCCCN)C(=O)N[C@H](C(=O)N[C@H](C(=O)N[C@@H](CCCCN)C(=O)N[C@@H](CO)C(=O)O)[C@@H](C)O)[C@@H](C)O [PAL-KTTKS, Palmitoyl pentapeptide-4] (HELM PEPTIDE1{[CCCCCCCCCCCCCCCC(=O)[*:2]].K.T.T.K.S}$$$$V2.0)

Sol-gel transition pH [1]: 7
Ionic strength trigger ([1]; sol-gel transition): YES
Temperature trigger ([1]; sol-gel transition): YES
C0 for sol-gel transition by weight of the composition (w/w) ([1]; w/w of the composition): 1%
Concentration trigger of self-assembly within the skin layers (skin layers): > 0.01 % w/w
Temperature trigger of self-assembly within the skin layers (skin layers): 37 °C
pH trigger of self-assembly within the skin layers (skin layers): 7
SMILES: CCCCCCCCCCCCCCCC(=O)N[C@H](C(=O)NCC(=O)N[C@H](C(=O)N[C@@H](C)C(=O)N1CCC[C@H]1C(=O)NCC(=O)O)C(C)C)C(C)C [PAL-VGVAPG, Palmitoyl hexapeptide] (HELM PEPTIDE1{[CCCCCCCCCCCCCCCC(=O)[*:2]].V.G.V.A.P.G}$$$$V2.0)
Elastin fiber integrated density (FIG. 1B) (existing elastin fibers; 37° C.): significant increase
Elastin fiber integrated density (FIG. 1B) (existing elastin fibers; 42° C.): significant increase
Elastin van Gieson staining signal (FIG. 1A) (existing elastin fibers): increase in signal as temperature increased
Elastin intensity (Elastin van Gieson stain, FIG. 2) ([2]; 12.5 μg/mL): increased
Elastin intensity (Elastin van Gieson stain, FIG. 2) ([2]; 25 μg/mL): increased
Elastin intensity (Elastin van Gieson stain, FIG. 2) ([2]; 50 μg/mL): increased
pH level at which peptide self-assembly was observed within the lower layers of the skin (ex vivo skin): 6 and 8

C0 for sol-gel transition by weight of the composition (w/w) [1]: 1.25%
Ionic strength trigger [1]: YES
Sol-gel transition pH [1]: 5
Temperature trigger [1]: YES
SMILES: CCCCCCCCCCCCCCCC(=O)NCC(=O)N[C@@H](Cc1cnc[nH]1)C(=O)O [PAL-GH, Palmityl dipeptide] (HELM PEPTIDE1{[CCCCCCCCCCCCCCCC(=O)[*:2]].G.H}$$$$V2.0)

Sol-gel transition pH [1]: 7
Ionic strength trigger ([1]; sol-gel transition): YES
C0 for sol-gel transition by weight of the composition (w/w) ([1]; w/w of the composition): 2%
SMILES: C[C@H](NC(=O)[C@H](CC(=O)O)NC(=O)[C@H](C)NC(=O)[C@H](CCCNC(=N)N)NC(=O)[C@H](C)NC(=O)[C@H](CC(=O)O)NC(=O)[C@H](C)NC(=O)[C@H](CCCNC(=N)N)NC(=O)[C@H](C)NC(=O)[C@H](CC(=O)O)NC(=O)[C@H](C)NC(=O)[C@H](CCCNC(=N)N)NC(=O)[C@H](C)NC(=O)[C@H](CC(=O)O)NC(=O)[C@H](C)NC(=O)[C@@H](N)CCCNC(=N)N)C(=O)O [RADARADARADARADA, RADA 16]

Reference: patent US20240050329A1, “METHODS FOR COSMETIC SKIN REMODELING” (ELC Management LLC, priority 2019, published 2024)
